Laboratory results reported in patent publication US9643971B2 (GALLEON PHARMACEUTICALS, INC., priority 2013, dated 2017).
Structures can show the parent of a compound that is named as a salt.

Test system: anesthetized rat
Experiment: Anesthetized rat spirometry screening assay
Type: in vivo
Details: for AUC MV Inc (2 min) (ratio vs. std*): 2 minute AUC of minute volume increase vs. comparator N-[2,6-di-(n-propylamino)-[1,3]pyrimidin-4-yl]-N,O-dimethyl-hydroxylamine; for VE Peak (% Inc.): peak minute ventilation increase, urethane-anesthetized rat, i.v. bolus, screening doses 0.1 and 0.3 mg/kg
Text: Effect of Compounds of the Invention on Respiratory Rate (RR), Tidal Volume (VT), and the Product Minute Volume Using an Anesthetized Rat Spirometry Screening Assay
Anesthetized rats provide a quick method of screening compounds for respiratory and cardiovascular activity. In contrast to the conscious rat model, this model offers an experimental set up with less variation in the baseline cardiovascular and respiratory measures. Compounds screened in this assay may be examined in a conscious rat model.
Rats were initially anesthetized with 3% isoflurane (inhaled) and femoral artery and vein cannulas were surgically inserted. Once cannulated, the rats were transitioned to urethane anesthesia (1.5 g/kg; i.v.) and a tracheal cut-down was performed. After placing the tracheal cannula, it was connected to a pneumotachometer to record respiratory airflow from which respiratory rate (RR), tidal volume (VT), and their product minute volume were derived. After the surgical preparation was complete, animals were allowed to stabilize for 30 minutes while respiratory rate, tidal volume, minute volume, blood pressure and heart rate were recorded continuously. Arterial blood gases (ABG) were obtained from arterial blood collected from the femoral artery. ABG measurements were taken before and 6 minutes after vehicle and each dose of compound administered. Compounds being screened were administered via bolus injections through the venous cannula followed by a saline flush (total time of administration is approximately 30 seconds), and the animal was monitored for at least 6 minutes for changes in cardiovascular efforts. Compounds were prepared in formulations identified to ensure optimal solubility. As such, vehicle controls were matched for the formulation of each compound tested. Dosing of the compound being screened was 0.1 and 0.3 mg/kg. The next dose was not administered until all cardiovascular and respiratory measures had returned to baseline levels. The positive control compounds used were N-[4,6-di-(n-propylamino)-[1,3,5]triazin-2-yl]-N,O-dimethyl-hydroxylamine or N-[2,6-di-(n-propylamino)-[1,3]pyrimidin-4-yl]-N,O-dimethyl-hydroxylamine (both administered at the end of each screening experiment (0.3 mg/kg dose) to validate the experiment and also to serve as a measure with which the compound being screened could be compared.
Data were analyzed by collecting cardiovascular and respiratory data in 30 second averages (BINs). Data were plotted 2 minutes before challenge and then 6 minutes after challenge.

SMILES	AUC MV Inc (2 min) (ratio vs. std*) [ratio vs. std]	VE Peak (% Inc.)
CCCNc1nc(NC)c2nc(O)nc(NC)c2n1 [Compound 101, 4,8-Bis-methylamino-6-propylamino-pyrimido[5,4-d]pyrimidin-2-ol]	0.00	–
CCCNc1nc(NC)c2nc(OCCC)nc(NC)c2n1 [Compound 95a, N^4,N^8-Dimethyl-6-propoxy-N^2-n-propyl-pyrimido[5,4-d]pyrimidine-2,4,8-triamine]	0.36	–
C=CCN(CC=C)c1nc(NC)c2nc(NCCC)nc(NC)c2n1 [Compound 58a, N^2,N^2-Diallyl-N^4,N^8-dimethyl-N^6-n-propyl-pyrimido[5,4-d]pyrimidine-2,4,6,8-tetraamine]	0.18	–
CNc1nc(NCC(C)C)nc2c(NC)nc(NCC(C)C)nc12.Cl [Compound 87a, N^2,N^6-Diisobutyl-N^4,N^8-dimethyl-pyrimido[5,4-d]pyrimidine-2,4,6,8-tetraamine hydrochloride]	0.18	–
CCNc1nc(NCC2CC2)nc2c(NCC)nc(NCC3CC3)nc12 [Compound 129a, N^2,N^6-Bis-cyclopropylmethyl-N^4,N^8-diethyl-pyrimido[5,4-d]pyrimidine-2,4,6,8-tetraamine]	0.25	–
CCCN=C(N)c1nc(NC)c2nc(NCCC)nc(NC)c2n1 [Compound 110a, N-(n-Propyl)-[4,8-Bis-methylamino-6-n-propylamino-pyrimido[5,4-d]pyrimidin-2-yl]-amidine]	0.00	0
CCCNc1nc(N(CC)CC)nc2c(NCCC)nc(NCC)nc12 [Compound 152a, N^2,N^2,N^6-Triethyl-N^4,N^8-di-n-propyl-pyrimido[5,4-d]pyrimidine-2,4,6,8-tetraamine]	0.00	–
CCCNc1nc(NC)c2nc(N(CCO)CCO)nc(NC)c2n1.Cl [Compound 66a, 2-[(4,8-Bis-methylamino-6-n-propylamino-pyrimido[5,4-d]pyrimidin-2-yl)-(2-hydroxy-ethyl)-amino]-ethanol hydrochloride]	0.14	–
CCCNc1nc(NC)c2ncnc(NC)c2n1 [Compound 116a, N^4,N^8-Dimethyl-N^2-n-propyl-pyrimido[5,4-d]pyrimidine-2,4,8-triamine]	0.00	–
CCCN(C)c1nc(N)c2nc(N(C)C)nc(NC)c2n1.Cl [Compound 56a, N^2,N^2,N^4,N^6-Tetramethyl-N^6-n-propyl-pyrimido[5,4-d]pyrimidine-2,4,6,8-tetraamine hydrochloride]	0.79	–
CCCNc1nc(NC)c2nc(N(C)CCN(C)C)nc(NC)c2n1 [Compound 64a, 2-[N-(2-Dimethylamino-ethyl)-N-methyl]amino-N^4,N^8-dimethyl-N^6-n-propyl-pyrimido[5,4-d]pyrimidine-4,6,8-triamine]	0.01	9
CCCNc1nc(NC)c2nc(SCCC)nc(NC)c2n1 [Compound 97a, N^4,N^8-Dimethyl-N^2-n-propyl-6-propylsulfanyl-pyrimido[5,4-d]pyrimidine-2,4,8-triamine]	0.26	–
C=CCNc1nc(NC)c2nc(NCC=C)nc(NC)c2n1.Cl [Compound 89a, N^2,N^6-Diallyl-N^4,N^8-dimethyl-pyrimido[5,4-d]pyrimidine-2,4,6,8-tetraamine hydrochloride]	0.92	–
CCCNc1nc(NC)c2nc(C(N)=O)nc(NC)c2n1 [Compound 107a, 6-Carbamoyl-N^4,N^8-dimethyl-N^2-n-propyl-pyrimido[5,4-d]pyrimidine-2,4,8-triamine]	0.00	–
CCNc1nc(NCC2CC2)c2nc(N(CC)CC)nc(NCC3CC3)c2n1.Cl [Compound 135a, N^2,N^2,N^6-Triethyl-N^4,N^8-bis-cyclopropylmethyl-pyrimido[5,4-d]pyrimidine-2,4,6,8-tetraamine hydrochloride]	0.00	–
CCCNc1nc(NC)c2nc(N(CCOC)CCOC)nc(NC)c2n1 [Compound 68a, N^2,N^2-Bis-(2-methoxyethyl)-N^4,N^8-dimethyl-N^6-n-propyl-pyrimido[5,4-d]pyrimidine-2,4,6,8-tetraamine]	0.00	–
CCCNc1nc(NC)c2nc(C#N)nc(NC)c2n1 [Compound 103a, 4,8-Bis-methylamino-6-n-propylamino-pyrimido[5,4-d]pyrimidine-2-carbonitrile]	0.00	–
CCCNc1nc(NC)c2nc(N3CCC(F)(F)CC3)nc(NC)c2n1 [Compound 77a, N^2-n-Propyl-N^4,N^8-dimethyl-6-(4,4-difluoro-piperidin-1-yl)-pyrimido[5,4-d]pyrimidine-2,4,8-triamine hydrochloride]	0.55	–
CCCNc1nc(N(C)C)nc2c(NCCC)nc(N(C)C)nc12 [Compound 142a, N^2,N^2,N^6,N^6-Tetramethyl-N^4,N^8-di-n-propyl-pyrimido[5,4-d]pyrimidine-2,4,6,8-tetraamine]	0.05	–
CCNc1nc(NCC)c2nc(NCC)nc(NCC)c2n1.Cl [Compound 125a, N^2,N^4,N^6,N^8-Tetraethyl-pyrimido[5,4-d]pyrimidine-2,4,6,8-tetraamine hydrochloride]	0.80	–
CCCNc1nc(NC)c2nc(CN)nc(NC)c2n1 [Compound 105a, N^4,N^8-Dimethyl-N^2-n-propyl-6-(aminomethyl)-pyrimido[5,4-d]pyrimidine-2,4,8-triamine]	0.00	–
CCCNc1nc(NC)c2nc(NCCOC(C)C)nc(NC)c2n1 [Compound 62a, N^2-(2-Isopropoxy-ethyl)-N^4,N^8-dimethyl-N^6-n-propyl-pyrimido[5,4-d]pyrimidine-2,4,6,8-tetraamine]	0.55	–
CCCNC(=O)CNc1nc(NC)c2nc(NCCC)nc(NC)c2n1.Cl [Compound 157a, N-n-Propyl-[2-(4,8-bis-methylamino-6-propylamino-pyrimido[5,4-d]pyrimidin-2-ylamino)]-acetamide hydrochloride]	0.04	–
C=CCNc1nc(NCC=C)c2nc(N3CCN(C(c4ccc(F)cc4)c4ccc(F)cc4)CC3)nc(NCC=C)c2n1 [Compound 150a, N^2,N^4,N^8-Triallyl-6-{4-[bis-(4-fluorophenyl)-methyl]-piperazin-1-yl}-pyrimido[5,4-d]pyrimidine-2,4,8-triamine]	0.00	–
C=CCNc1nc(NCC=C)c2nc(N3CCN(Cc4ccc(F)cc4)CC3)nc(NCC=C)c2n1.Cl.Cl [Compound 148a, N^2,N^4,N^8-Triallyl-6-[4-(4-fluorobenzyl)-piperazin-1-yl]-pyrimido[5,4-d]pyrimidine-2,4,8-triamine dihydrochloride]	0.00	–
CCCNc1nc(NC)c2nc(N3CCS(=O)(=O)CC3)nc(NC)c2n1.Cl [Compound 75a, N^2-6-n-Propylamino-N^4,N^8-dimethyl-2-(1,1-dioxo-thiomorpholin-4-yl)-pyrimido-[5,4-d]pyrimidine-2,4,8-triamine hydrochloride]	0.02	2
CCCNc1nc(NCC)c2nc(NCCC)nc(NCC)c2n1 [Compound 127a, N^4,N^8-Diethyl-N^2,N^6-di-n-propyl-pyrimido[5,4-d]pyrimidine-2,4,6,8-tetraamine]	0.86	–
CCCNc1nc(NC)nc2c(NCCC)nc(C#N)nc12 [Compound 122a, 6-Methylamino-4,8-bis-n-propylamino-pyrimido[5,4-d]pyrimidine-2-carbonitrile]	0.00	–
CCCNc1nc(NC)c2nc(OCc3ccccc3)nc(NC)c2n1 [Compound 99a, 6-Benzyloxy-N^4,N^8-Dimethyl-N^2-n-propyl-pyrimido[5,4-d]pyrimidine-2,4,8-triamine]	0.19	–
CCCNc1nc(NC)c2nc(NCC(=O)O)nc(NC)c2n1 [Compound 154, (4,8-bis-methylamino-6-n-propylamino-pyrimido[5,4-d]pyrimidin-2-ylamino)-acetic acid]	0.00	–
